Source: publication PMC12040169 (PLOS Biology, 2025)

Test: in vitro
Conditions: human, hela cells, % viability

Row | Compound | viability at 28.5 h, 10 µM
1 | COc1ccc([C@@]23CC[C@H](NC(=O)Nc4cccc(C(F)(F)F)c4F)C[C@@H]2CN(C)C3)cc1OC [CBK063200A] | 92.3%
2 | CCCCc1ccc(NC(=O)Nc2ccc3ccc(Cl)nc3n2)cc1 [CBK063259] | 114%
3 | O=C(Nc1cc2ccccc2c(Br)n1)N[C@@H]1C[C@H]1c1ccccc1 [CBK063276] | 92.3%
4 | O=C(Nc1cc2ccccc2c(Br)n1)Nc1ccc(F)cc1C(F)(F)F [CBK063278] | 96.3%
5 | CCOC(=O)CNC(=O)Nc1cc2ccccc2c(Br)n1 [CBK063279] | 92.5%
6 | O=C(NCCc1ccccc1)Nc1cc2cccnc2c(Br)n1 [CBK063283] | 95.9%
7 | COc1ccc(NC(=O)Nc2cc3cccnc3c(Br)n2)c(C)c1 [CBK063294] | 96.8%
8 | O=C(Nc1cc2ccccc2c(Br)n1)c1ccc(C(F)(F)F)cc1[N+](=O)[O-] [CBK063299] | 92.5%
9 | Cc1ccc(S(=O)(=O)NCC(=O)Nc2cc3ccccc3c(Br)n2)cc1 [CBK063300] | 101%
10 | O=C(Nc1cc2ccccc2c(Br)n1)C(F)(F)F [CBK063301] | 82%
11 | CC(=O)N[C@@H](Cc1c[nH]cn1)C(=O)Nc1cc2ccccc2c(Br)n1 [CBK063302] | 91.3%
12 | Cc1ccc(S(=O)(=O)n2ccc3ccc(N4CCN(C)CC4)nc32)cc1 [CBK063327] | 84%
13 | Nc1ncc(-c2cccnc2)nc1NCc1ccccc1 [CBK063349] | 102%
14 | COc1cncc(-c2cnc(N)c(N3CCOCC3)n2)c1 [CBK063360] | 96.7%
15 | CN1CCN(c2nc(-c3ccoc3)cnc2N)CC1 [CBK063362] | 103%
16 | COc1cc(-c2cnc(N)c(N3CCC(C(=O)O)CC3)n2)cc(OC)c1OC [CBK063365] | 98.9%
17 | Nc1ncc(-c2cccc3cccnc23)nc1N1CCOCC1 [CBK063383] | 93.2%
18 | COc1ccc(C(C)C)cc1-c1cnc(N)c(N2CCOCC2)n1 [CBK063384] | 92.1%
19 | Nc1ncc(-c2ccc(N3CCOCC3)cc2)nc1N1CCN(CCO)CC1 [CBK063394] | 95.8%
20 | CCCC/C=C/c1cnc(N)c(N2CCOCC2)n1 [CBK063398] | 98.1%
21 | COc1ccccc1-c1cnc(N)c(N2CCN(CCO)CC2)n1 [CBK063403] | 96.1%
22 | Nc1ncc(-c2cc(C(F)(F)F)cc(C(F)(F)F)c2)nc1N1CCN(CCO)CC1 [CBK063426] | 103%
23 | Nc1ncc(-c2ccoc2)nc1N1CCN(CCO)CC1 [CBK063428] | 98.8%

Row | Compound | viability at 28.5 h, 10 µM
24 | CC(=O)c1ccc(-c2cnc(N)c(N3CCN(C)CC3)n2)s1 [CBK063432] | 94.4%
25 | CN1CCN(c2nc(-c3cccc(F)c3)cnc2N)CC1 [CBK063433] | 100%
26 | Nc1ncc(-c2cccc(OC(F)(F)F)c2)nc1N1CCN(CCO)CC1 [CBK063435] | 94.9%
27 | CC(=O)c1ccc(-c2cnc(N)c(N3CCC[C@@H]3CO)n2)s1 [CBK063438] | 97.9%
28 | Nc1ncc(-c2ccco2)nc1N1CCC(C(=O)O)CC1 [CBK063440] | 87%
29 | Nc1ncc(-c2cccc3ncccc23)nc1N1CCC[C@@H]1CO [CBK063441] | 105%
30 | Nc1ncc(-c2ccco2)nc1N1CCOCC1 [CBK063456] | 80.2%
31 | CN(C)CCN1CCN(c2nc(-c3ccc(S(C)(=O)=O)cc3)cnc2N)CC1 [CBK063457] | 100%
32 | CC(C)(CO)CNc1nc(-c2ccc3c(c2)OCO3)cnc1N [CBK063459] | 105%
33 | CN(C)CCN1CCN(c2nc(-c3cccc4cccnc34)cnc2N)CC1 [CBK063464] | 94.3%
34 | CC(=O)Nc1cccc(-c2cnc(N)c(N3CCN(CCN(C)C)CC3)n2)c1 [CBK063472] | 91.1%
35 | COCCNc1nc(-c2cccc(-c3ccccc3)c2)cnc1N [CBK063474] | 99.5%
36 | CC(C)(CO)CNc1nc(-c2cccnc2)cnc1N [CBK063475] | 100%
37 | CC(C)(CO)CNc1nc(-c2ccc(F)c(Cl)c2)cnc1N [CBK063484] | 102%
38 | COc1cc(-c2cnc(N)c(N3CCN(CCN(C)C)CC3)n2)cc(OC)c1OC [CBK063488] | 94.4%
39 | COc1ccc(-c2cnc(N)c(N3CCN(C)CC3)n2)c(OC)c1OC [CBK063489] | 103%
40 | CC(C)(CO)CNc1nc(-c2cc(C(F)(F)F)cc(C(F)(F)F)c2)cnc1N [CBK063490] | 101%
41 | Nc1ncc(-c2cccc(-c3ccccc3)c2)nc1NCc1cccnc1 [CBK063491] | 93.5%
42 | CC(C)(CO)CNc1nc(-c2ccsc2)cnc1N [CBK063499] | 103%
43 | Nc1ncc(-c2cc(C(F)(F)F)cc(C(F)(F)F)c2)nc1N1CCC[C@@H]1CO [CBK063501] | 93.3%
44 | CN(C)CCN1CCN(c2nc(-c3cccnc3)cnc2N)CC1 [CBK063503] | 93.6%
45 | COc1cncc(-c2cnc(N)c(NCc3cccnc3)n2)c1 [CBK063531] | 110%
46 | CN(C)CCN1CCN(c2nc(-c3cccc(C(N)=O)c3)cnc2N)CC1 [CBK063537] | 97.8%

Row | Compound | viability at 28.5 h, 10 µM
47 | Nc1ncc(-c2cc(C(F)(F)F)cc(C(F)(F)F)c2)nc1NCCCO [CBK063546] | 105%
48 | COCCNc1nc(-c2cc(OC)c(OC)c(OC)c2)cnc1N [CBK063559] | 112%
49 | CC(=O)Nc1cccc(-c2cnc(N)c(NCc3cccnc3)n2)c1 [CBK063562] | 103%
50 | Nc1ncc(-c2cccc3ccccc23)nc1NCc1ccccc1 [CBK063565] | 99%
51 | Nc1ncc(-c2ccc(-c3ccccc3)cc2)nc1NC1CCCCC1 [CBK063572] | 87.3%
52 | COCCNc1nc(-c2ccccc2CO)cnc1N [CBK063575] | 108%
53 | CN(C)CCNc1nc(-c2ccncc2)cnc1N [CBK063580] | 102%
54 | COc1ccc(Nc2nc(-c3cccc(N)c3)cnc2N)cc1 [CBK063585] | 95.9%
55 | CS(=O)(=O)c1ccc(-c2cnc(N)c(NCCCO)n2)cc1 [CBK063587] | 87.3%
56 | COCCNc1nc(-c2ccc(F)cc2)cnc1N [CBK063591] | 116%
57 | COc1ccc(Nc2nc(-c3cccc(-c4ccccc4)c3)cnc2N)cc1 [CBK063593] | 89.8%
58 | Nc1ncc(-c2cccc(Br)c2)nc1NCCCO [CBK063603] | 91.3%
59 | Nc1ncc(-c2ccncc2)nc1NC1CCCCC1 [CBK063604] | 80.9%
60 | COCCNc1nc(-c2cncc(OC)c2)cnc1N [CBK063606] | 103%
61 | Nc1ncc(-c2cccc3cccnc23)nc1NC1CCCCC1 [CBK063613] | 107%
62 | COc1ccc(C(C)C)cc1-c1cnc(N)c(NC2CCCCC2)n1 [CBK063618] | 108%
63 | COc1ccc(C(C)C)cc1-c1cnc(N)c(NCCCN2CCOCC2)n1 [CBK063625] | 79.4%
64 | COc1cc(-c2cnc(N)c(NCc3ccncc3)n2)cc(OC)c1OC [CBK063646] | 94.8%
65 | CS(=O)(=O)c1ccc(-c2cnc(N)c(NCc3ccncc3)n2)cc1 [CBK063647] | 105%
66 | Nc1ncc(-c2cccc(CO)c2)nc1NC1CCCCC1 [CBK063650] | 101%
67 | Nc1ncc(-c2cc(C(F)(F)F)cc(C(F)(F)F)c2)nc1Nc1ccc2[nH]ccc2c1 [CBK063651] | 71.9%
68 | Nc1ncc(-c2ccoc2)nc1NCc1ccco1 [CBK063652] | 97.2%
69 | CC(=O)Nc1cccc(-c2cnc(N)c(N3CCC(C(=O)O)CC3)n2)c1 [CBK063657] | 98.9%

Row | Compound | viability at 28.5 h, 10 µM
70 | CN(C)CCNc1nc(-c2cncnc2)cnc1N [CBK063661] | 97.8%
71 | Nc1ncc(-c2cccc(/C=C/C(=O)O)c2)nc1N1CCN(CCO)CC1 [CBK063665] | 98.7%
72 | Nc1ncc(-c2ccc(O)cc2)nc1N1CCC[C@@H]1CO [CBK063669] | 91.7%
73 | Nc1ncc(-c2cccc(O)c2)nc1NCc1ccco1 [CBK063675] | 92.1%
74 | COc1ccc(-c2cnc(N)c(NCCCN3CCOCC3)n2)c(OC)c1OC [CBK063676] | 113%
75 | COc1cccc(-c2cnc(N)c(NCc3ccco3)n2)c1 [CBK063684] | 99.6%
76 | Nc1ncc(-c2cc(C(F)(F)F)cc(C(F)(F)F)c2)nc1NCc1ccco1 [CBK063689] | 91.6%
77 | CN(C)CCNc1nc(-c2cccc3ncccc23)cnc1N [CBK063693] | 102%
78 | COc1ccc(C(C)C)cc1-c1cnc(N)c(NCc2ccncc2)n1 [CBK063695] | 97.5%
79 | C[C@@H](Nc1nc(-c2cccc(-c3ccccc3)c2)cnc1N)c1ccccc1 [CBK063704] | 96.3%
80 | C[C@H](Nc1nc(-c2ccoc2)cnc1N)c1ccccc1 [CBK063707] | 105%
81 | C[C@H](Nc1nc(-c2cccc(C(=O)NCCN(C)C)c2)cnc1N)c1ccccc1 [CBK063714] | 112%
82 | C[C@H](Nc1nc(-c2cccc(C(N)=O)c2)cnc1N)c1ccccc1 [CBK063715] | 97.1%
83 | C[C@@H](Nc1nc(-c2cc(C(F)(F)F)cc(C(F)(F)F)c2)cnc1N)c1ccccc1 [CBK063720] | 105%
84 | CCCC/C=C/c1cnc(N)c(N[C@@H](C)c2ccccc2)n1 [CBK063722] | 109%
85 | C[C@@H](Nc1nc(-c2ccccc2)cnc1N)c1ccccc1 [CBK063728] | 98.9%
86 | CC(C)[C@@H](CO)Nc1nc(-c2cncnc2)cnc1N [CBK063735] | 99.4%
87 | C[C@@H](Nc1nc(-c2ccco2)cnc1N)c1ccccc1 [CBK063737] | 108%
88 | COc1ccc(-c2cnc(N)c(N[C@H](C)c3ccccc3)n2)c(OC)c1OC [CBK063747] | 105%
89 | Nc1ncc(-c2ccccc2)nc1NC1CCOCC1 [CBK063748] | 97.3%
90 | COc1ccccc1-c1cnc(N)c(N[C@@H](CO)C(C)C)n1 [CBK063749] | 101%
91 | C[C@H](Nc1nc(-c2cccc(-c3ccccc3)c2)cnc1N)c1ccccc1 [CBK063752] | 94.5%
92 | C[C@H](Nc1nc(-c2cccc(/C=C/C(=O)O)c2)cnc1N)c1ccccc1 [CBK063754] | 85.2%
